Data reported in PMC10901349, “Enzymatic properties of UDP-glycosyltransferase 89B1 from radish and modulation of enzyme catalytic activity via loop region mutation” (PLOS ONE, 2024).
Where two headings read alike, the source gives them in different places.

Target: T1, Rs89B1 (Raphanus sativus, UniProt A0A6J0K544)
T1 construct: gene LOC108814497; full-length CDS, C-terminal 6xHis tag (kept), expressed in Schizosaccharomyces pombe TN4, HisTrap purified; start MTVNEENT (from primer)
Test: HPLC glucosyltransferase assay, initial rates, curve fitting
Assay type: biochemical
Conditions: co-substrate UDP-glucose (5.0 mM in basic mix), sodium phosphate pH 7.0, 30°C
Description: HPLC glucosyltransferase assay, initial rates, curve fitting on Rs89B1

T1 sequence (A0A6J0K544 entry or part of it): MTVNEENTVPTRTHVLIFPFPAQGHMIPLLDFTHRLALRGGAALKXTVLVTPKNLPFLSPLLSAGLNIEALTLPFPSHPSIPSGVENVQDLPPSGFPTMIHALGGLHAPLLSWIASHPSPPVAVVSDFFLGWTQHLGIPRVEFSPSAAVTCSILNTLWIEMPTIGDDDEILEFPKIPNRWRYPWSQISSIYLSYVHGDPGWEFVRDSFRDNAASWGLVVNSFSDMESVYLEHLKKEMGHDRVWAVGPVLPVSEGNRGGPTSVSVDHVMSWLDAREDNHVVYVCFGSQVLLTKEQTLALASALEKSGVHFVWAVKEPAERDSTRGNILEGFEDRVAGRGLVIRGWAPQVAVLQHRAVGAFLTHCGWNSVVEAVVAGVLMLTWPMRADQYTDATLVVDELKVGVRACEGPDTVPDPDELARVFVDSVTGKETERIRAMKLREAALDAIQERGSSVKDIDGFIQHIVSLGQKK

SMILES | Km | Km (read-out: Rs89B1_ins / Km)
O=C(O)c1ccc(O)c(O)c1O [2,3,4-THBA, 2,3,4-trihydroxy benzoic acid] | 138 ± 2 µM | 128 ± 4.5 µM
O=C(O)c1c(O)cc(O)cc1O [2,4,6-THBA] | 198 ± 7.2 µM | 688 ± 14.6 µM
O=C(O)c1ccc(O)cc1O [2,4-DHBA] | 182 ± 4.2 µM | 212 ± 5.8 µM
O=C(O)c1cc(O)ccc1O [2,5-DHBA] | 773.8 ± 1.6 µM | 663.2 ± 2.3 µM
O=C(O)c1ccc(O)cc1 [4-HBA] | 233 ± 12.2 µM | 251 ± 15.4 µM
